Results from patent US20240208997A1, “CYCLIC BENZIMIDAZOLE DERIVATIVES AS CGAS INHIBITORS” (Boehringer Ingelheim International GmbH, priority 2022, published 2024).

Experiments:
[1] = tested on: IFN induction in virus-stimulated THP1 cells; test: Human cGAS cell assay, virus-stimulated THP1-Dual cells (THP1(vir) IC50); type: cell-based; conditions: THP-1, 18 h, Table 1, baculovirus-stimulated THP1-Dual cells, Lucia luciferase, 18 h, read-out: THP(vir) IC50
Source text: (§1) 6.2 Method: Human cGAS Cell Assay and cGAMP Stimulated Counter Cell Assay (THP1(vir) IC50 and THP1(cGAMP) IC50)
THP1-Dual™ cells (InvivoGen #thpd-nfis) expressing IRF dependent Lucia luciferase reporter were used as basis for both assays. For the detection of cellular cGAS activity cells were stimulated by a baculovirus (pFastbac-1, Invitrogen, no coding insert) infection that delivers the cGAS enzyme stimulating double-stranded DNA (measurement of THP1(vir) IC50).
(§2) Pathway activity was monitored by measuring the Lucia luciferase activity induced by either DNA stimulated cGAS enzyme activity (measurement of THP1(vir) IC50) or by cGAMP directly (measurement of THP1(cGAMP) IC50, counter assay).
(§3) Compounds were delivered in 10 mM DMSO solution, serially diluted and transferred to the 384 well assay plate (Greiner #781201) using an Echo acoustic dispenser. Typically, 8 concentrations were used with the highest concentration at 10 μM in the final assay volume followed by ^˜1:5 dilution steps. DMSO concentration was set to 1% in the final assay volume. The 384 well assay plate contained […] (column 1-22), and DMSO in column 23 and 24.
(§4) Cells, cultivated according to manufacturer conditions, were harvested by centrifugation at 300 g/10 min and were then resuspended and diluted to 1.66E5 cells/ml in fresh cell culture medium (RPMI 1640 (Gibco #A10491-01), 10% FCS (Gibco #10500), 1× GlutaMax (Gibco #35050-061), 1× Pen/Strep solution (Gibco #15140-122), 100 μg/ml Normocin (InvivoGen #ant-nr), 100 μg/ml Zeocin (InvivoGen #ant-zn), 10 μg/ml Blasticidin S (Life Technologies #A11139-03)). The baculovirus solution was then added 1:200 (have varied according to virus batch) to the cells (measurement of THP1(vir) IC50).
(§5) 30 μL of the cell/virus-mix were added to each well of the compound plate from column 1-23 via MultiDrop Combi dispenser (5000 cells/well). In column 24, 30 μl/5000 cells/well without virus were added as a low control.
(§6) The plates were then incubated for 18 h at 37° C. in a humidified incubator.
(§7) Following that, 15 μL of QuantiLuc detection reagent (InvivoGen #rep-qlcg5) were added to each well using a MultiDrop Combi. Measurement was done immediately after the addition using an EnVision reader (US-luminescence read-mode).
(§8) Data Evaluation and Calculation:
(§9) For data evaluation and calculation, the measurement of the low control was set as 0% control and the measurement of the high control was set as 100% control. The IC50 values were calculated using the standard 4 parameter logistic regression formula. Calculation: [y=(a−d)/(1+(x/c)^b)+d], a=low value, d=high value; x=conc M; c=IC50 M; b=slope

[2] = tested on: IFN induction in cGAMP-stimulated THP1 cells; test: cGAMP stimulated counter cell assay in THP1-Dual cells (THP1(cGAMP) IC50); type: cell-based, human; conditions: Table 1; for IC50: Homo sapiens, THP-1, counter assay, 10 μM cGAMP stimulation, read-out: THP(cGAMP) IC50; for Ratio THP(cGAMP) IC50/THP(vir) IC50: selectivity for cGAS-inhibition
Source text: as §1
For the counter assay, cells were stimulated by cGAMP (SigmaAldrich #SML1232) to activate the identical pathway independent and directly downstream of cGAS (measurement of THP1(cGAMP) IC50).
as §2, §3, §4, §5, §6, §7, §8, §9

[3] = tested on: IFN induction in dsDNA-stimulated human whole blood; test: Human whole blood assay (hWB IC50), dsDNA stimulated, IFNα2α production; type: cell-based; conditions: Table 1
Description: 6.3 Method: Human Whole Blood Assay (Human WB IC50)
For the detection of cellular cGAS activity human whole blood was stimulated by transfection with double stranded DNA. Pathway activity was monitored by measuring the IFNα2α production.
Compounds were delivered as 10 mM DMSO solution and serially diluted and transferred to the 96-well cell culture plate (Corning #3595), prefilled with 20 μl OptiMEM (Gibco, #11058-021) in each well, using an Echo acoustic dispenser. Typically, 8 concentrations were used with the highest concentration at 10 μM in the final assay volume followed by ^˜1:5 dilution steps. DMSO concentration was set to 0.1% in the final assay volume. The 96-well assay plate contained 10 test compounds, and DMSO in control wells.
Collection of human whole blood from 3 or more healthy donors (male or female, no medication for 7 days except contraceptive and thyroxine) as Na-Citrate blood (e.g. 3.8% in Monovettes from Sarstedt) was conducted in parallel. Whole blood was kept at room temperature for a maximum of 3 hours after collection until use in the assay. 160 μl of the whole blood samples was transferred to each well of the 96-well assay plates filled with compound/OptiMEM. All assay plates were prepared as duplicates with blood from different donors. Blood plates were kept at room temperature for 60 minutes and continuous shaking with 450 rpm, covered with the lid, but not sealed.
20 μl OptiMEM and 9.6:1 Fugene was added to all low control wells.
After covering assay plates with aera seals and the lid, blood plates were kept at room temperature for 30 minutes and continuous shaking with 450 rpm, followed by an overnight incubation of 22 h at 37° C. in the incubator, without shaking.
For the detection of IFNα-2α in human plasma, the biotinylated capture antibody (Antibody set IFNA2, Meso Scale Diagnostics #B21VH-3, including coating and capture antibody) was diluted 1:17.5 in Diluent 100 (Meso Scale Diagnostics #R50AA-4), according to the manufacturer's directions. U-Plex MSD GOLD 96-well Small Spot Strepavidin SECTOR Plates (Meso Scale Diagnostics #L45SA-5) were coated with 25 μl diluted capture antibody. Coated plates were incubated for 60 min at room temperature under continuous shaking at 700 rpm. MSD IFNα-2α plates were washed three times with 150 μl wash buffer (1× HBSS, 0.05% Tween).
After blocking the plates with 100 μl block solution/well (1× HBSS with 0.2% Tween, 2% BSA) for 60 min at room temperature and continuous shaking at 700 rpm, plates were emptied as dry as possible by dumping just before continuing with the human plasma.
Whole Blood assay plates were centrifuged at 1600 rpm for 10 minutes. 25 μl of supernatant was transferred with a pipetting robot from each whole blood plate to the corresponding IFNα-2α plate. Plates were sealed with microplate seals and kept at room temperature again under continuous shaking at 700 rpm for two hours.
Next MSD IFNα-2α plates were washed three times with 150 μl wash buffer (1× HBSS, 0.05% Tween), before adding 25 μl MSD SULFO-TAG IFNα-2α Antibody solution (1:100 diluted in Diluent 3 (Meso Scale Diagnostics #R50AP-2) to each well of the plates.
Afterwards plates were sealed with microplate seals and kept at room temperature again under continuous shaking at 700 rpm for two hours. Finally, MSD IFNα-2α plates were washed three times with 150 μl wash buffer (1× HBSS, 0.05% Tween). 150 μl 2× Read buffer was added to each well and plates were immediately measured with the MSD Sector S600 Reader using the vendor barcode.
as §8
For data evaluation and calculation, % control calculation of each well was based on the mean of high (DNA stimulated control) and mean of low (unstimulated control) controls by using the following formula:
[counts(sample)−counts(low))/(counts(high)−counts(low))]*100
The IC50-values were calculated using the standard 4 parameter logistic regression formula. […]

Structure (SMILES) | IC50 [1] | IC50 [2] | Ratio THP(cGAMP) IC50/THP(vir) IC50 [2] | IC50 [3]
C[C@H]1CN2CC[C@@H]1n1c(nc3cc(F)ccc31)O[C@H]1C[C@@H](C(=O)O)N(C1)c1nc(nc3c1oc1cc(F)ccc13)C(F)(F)CCCCCC2=O [Example 1.15] | 7.1 nM | > 10000 nM | >1408 | 3 nM
Cc1cccc2c1nc1n2[C@H]2CCN(C[C@@H]2C)C(=O)CCCCCC(F)(F)c2nc(c3oc4ccccc4c3n2)N2C[C@H](C[C@H]2C(=O)O)O1 [Example 1.28] | 15 nM | 4000 nM | 267 | 28 nM
O=C(O)[C@@H]1C[C@H]2CN1c1nc(nc3c1oc1ccccc13)OCCCCOC(=O)N1CCC(CC1)n1c(nc3ccccc31)O2 [Example 11.01] | 180 nM | > 1000 nM | >56 | 138 nM
C[C@H]1CN2CC[C@@H]1n1c(nc3ccccc31)O[C@H]1C[C@@H](C(=O)O)N(C1)c1nc(nc3c1oc1cc(Cl)ccc13)CCOCCCC2=O [Example 1.07] | 6.5 nM | > 10000 nM | >1541 | 13 nM
C[C@H]1CN2CC[C@@H]1n1c(nc3cc(Cl)ccc31)O[C@H]1C[C@@H](C(=O)O)N(C1)c1nc(nc3c1oc1cc(Cl)ccc13)CCOCCCC2=O [Example 1.08] | 2.4 nM | 9500 nM | 3928 | 17 nM
C[C@H]1CN2CC[C@@H]1n1c(nc3ccc(Cl)cc31)O[C@H]1C[C@@H](C(=O)O)N(C1)c1nc(nc3c1oc1ccccc13)C(F)(F)CCCCCC2=O [Example 1.13] | 4.9 nM | 11000 nM | 2251 | 15 nM
C[C@H]1CN2CC[C@@H]1n1c(nc3cc(Cl)ccc31)O[C@H]1C[C@@H](C(=O)O)N(C1)c1nc(nc3c1oc1ccccc13)COCCOCC2=O [Example 1.11] | 3.6 nM | ≥ 10000 nM | >2907 | 3 nM
C[C@H]1CN2CC[C@@H]1n1c(nc3cc(Cl)ccc31)O[C@H]1C[C@@H](C(=O)O)N(C1)c1nc(nc3c1oc1ccccc13)C(F)(F)OCCCCC2=O [Example 6.01] | 3.1 nM | > 10000 nM | >2225 | 3 nM
C[C@H]1CN2CC[C@@H]1n1c(nc3ccccc31)O[C@H]1C[C@@H](C(=O)O)N(C1)c1nc(nc3c1oc1ccccc13)CCOCCCC2=O [Example 1.05] | 2.9 nM | > 10000 nM | >3448 | 5 nM
C[C@H]1CN2CC[C@@H]1n1c(nc3cc(F)ccc31)O[C@H]1C[C@@H](C(=O)O)N(C1)c1nc(nc3c1oc1ccccc13)C(F)(F)CCCCC(F)(F)C2=O [Example 1.18] | 37 nM | 10000 nM | 270 | 10 nM
C[C@H]1CN2CC[C@@H]1n1c(nc3ccccc31)O[C@H]1C[C@@H](C(=O)O)N(C1)c1nc(nc3c1oc1ccccc13)CCCCCC2=O [Example 1.19] | 40 nM | 11000 nM | 277 | 18 nM
C[C@H]1CN2CC[C@@H]1n1c(nc3ccccc31)O[C@H]1C[C@@H](C(=O)O)N(C1)c1nc(nc3c1oc1ccccc13)CCCCCCC2=O (racemic) [Example 1.24] | 170 nM | 11000 nM | 65 | 86 nM
CC1CCc2nc(c3oc4ccccc4c3n2)N2C[C@H](C[C@H]2C(=O)O)Oc2nc3cc(Cl)ccc3n2[C@H]2CCN(C[C@@H]2C)C(=O)CCO1 (stereo partly shown) [Example 1.20] | 13 nM | > 10000 nM | >773 | 7 nM
C[C@H]1CN2CC[C@@H]1n1c(nc3ccccc31)O[C@H]1C[C@@H](C(=O)O)N(C1)c1nc(nc3c1oc1ccccc13)C(F)(F)COCCCCC2=O [Example 3.01] | 0.44 nM | 14000 nM | 32066 | 1 nM
C[C@@H]1CC(=O)N2CCC(CC2)n2c(nc3ccccc32)O[C@H]2C[C@@H](C(=O)O)N(C2)c2nc(nc3c2oc2ccccc23)CCCO1 [Example 7.01] | 150 nM | 3500 nM | 23 | 101 nM
C[C@H]1CN2CC[C@@H]1n1c(nc3ccccc31)O[C@H]1C[C@@H](C(=O)O)N(C1)c1nc(nc3c1oc1cc(Cl)ccc13)C(F)(F)CCCCCC2=O [Example 1.16] | 9.7 nM | 11000 nM | 1134 | 10 nM
C[C@H]1CN2CC[C@@H]1n1c(nc3ccccc31)O[C@H]1C[C@@H](C(=O)O)N(C1)c1nc(nc3c1oc1ccccc13)C(F)(F)COCCCC2=O [Example 4.01] | 0.69 nM | > 10000 nM | >14442 | 1 nM
C[C@H]1CN2CC[C@@H]1n1c(nc3ccccc31)O[C@H]1C[C@@H](C(=O)O)N(C1)c1nc(nc3c1oc1ccccc13)CCCC(C)(C)CCC2=O [Example 1.23] | 190 nM | 9500 nM | 51 | 143 nM
Cc1cccc2c1nc1n2[C@@H]2CCN(C[C@H]2C)C(=O)CCCCCC(F)(F)c2nc(c3oc4ccccc4c3n2)N2C[C@H](C[C@H]2C(=O)O)O1 [Example 1.27] | 180 nM | 6000 nM | 33 | 1580 nM
